{
  "source": "patent US5908862A",
  "about": "“Water-miscible esters of mono--and diglycerides having antibacterial activity and their use in inhibiting infection” (priority 1996, dated 1999)",
  "test_system": "human respiratory syncytial virus (RSV) in LLC-MK2 cells",
  "assay": "RSV inhibition assay in LLC-MK2 cells (immunoperoxidase), PBS",
  "type": "cell-based",
  "details": "Carrageenan's IC50; Carrageenan alone",
  "description": "Additional studies were performed to determine the synergistic anti-viral effects of diacetyltartaric acid esters of mono- and diglycerides, lipophilic monoglycerides (MG) and carrageenan. These studies were carried out using […] and PBS as the diluent. The RSV inhibition assay semi-quantitatively determines the ability of a test material (antibody or other bioactive compound) to inhibit the infection of monkey kidney cells (LLC-MK2) by human respiratory syncytial virus (RSV). Infected cells are identified using an immunoperoxidase method and counted. The method is performed in a microtiter format and is described briefly below:\nLLC-MK2 rhesus monkey kidney cells were obtained from the American Type Culture Collection and were cultured in Eagles […] essential medium (EMEM) supplemented with 10% fetal bovine serum. […] Plates were then rinsed as above with PBS/CEA, and the number of stained RSV-infected cells (IC) per well determined using an inverted microscope. The number of ICs' in triplicate wells was compared with the number of ICs' of virus control wells (mean of 9)and the percent inhibition (PI) calculated; [PI=1.0-[Mean ICs' per well of test sample/Mean ICs' per well of virus control]. […]",
  "data": [
    {"substance": "Carrageenan", "values": [
      {"measurement": "Enhancement Factor", "value": 1.0}
    ]}
  ]
}
